The values that follow come from PMC2151574 (The Journal of General Physiology, 2006).

Values joined by “and” are separate entries in the source; they are usually repeats but may differ in a detail not shown here. Equal entries are not always repeated. “Also recorded” adds a separate entry of the source. Where two headings read alike, the source gives them in different places. Where a SMILES comes first, the peptide text is derived from it.

Assay [1] has as its system Shaker channel (ShB Δ6-46). In words: Macroscopic block of Shaker currents, inside-out patch clamp. The assay is classed as cell-based. The following applies: identical conditions, holding potential −120 mV. On the technique in general: The patch-clamp technique gives a direct electrical read-out from membranes.
Assay [2] has as its target T1, E321N, E324N mutant BK channel (Mus musculus, UniProt Q08460, E386N/E389N). The assay is classed as cell-based.
For assay [3], the target named is wild-type BK channel (mslo, mbr5) (Mus musculus, UniProt Q08460). In words: Macroscopic block of wild-type BK currents, inside-out patch clamp. It is filed as cell-based. The following applies: for time constant of block, τfast (double exponential fit) / time constant of block, τslow (double exponential fit): inside-out patch, 22°C, holding potential −80 mV.
Sequence of wild-type BK channel (mslo, mbr5) (Q08460 66-1209 limits assumed): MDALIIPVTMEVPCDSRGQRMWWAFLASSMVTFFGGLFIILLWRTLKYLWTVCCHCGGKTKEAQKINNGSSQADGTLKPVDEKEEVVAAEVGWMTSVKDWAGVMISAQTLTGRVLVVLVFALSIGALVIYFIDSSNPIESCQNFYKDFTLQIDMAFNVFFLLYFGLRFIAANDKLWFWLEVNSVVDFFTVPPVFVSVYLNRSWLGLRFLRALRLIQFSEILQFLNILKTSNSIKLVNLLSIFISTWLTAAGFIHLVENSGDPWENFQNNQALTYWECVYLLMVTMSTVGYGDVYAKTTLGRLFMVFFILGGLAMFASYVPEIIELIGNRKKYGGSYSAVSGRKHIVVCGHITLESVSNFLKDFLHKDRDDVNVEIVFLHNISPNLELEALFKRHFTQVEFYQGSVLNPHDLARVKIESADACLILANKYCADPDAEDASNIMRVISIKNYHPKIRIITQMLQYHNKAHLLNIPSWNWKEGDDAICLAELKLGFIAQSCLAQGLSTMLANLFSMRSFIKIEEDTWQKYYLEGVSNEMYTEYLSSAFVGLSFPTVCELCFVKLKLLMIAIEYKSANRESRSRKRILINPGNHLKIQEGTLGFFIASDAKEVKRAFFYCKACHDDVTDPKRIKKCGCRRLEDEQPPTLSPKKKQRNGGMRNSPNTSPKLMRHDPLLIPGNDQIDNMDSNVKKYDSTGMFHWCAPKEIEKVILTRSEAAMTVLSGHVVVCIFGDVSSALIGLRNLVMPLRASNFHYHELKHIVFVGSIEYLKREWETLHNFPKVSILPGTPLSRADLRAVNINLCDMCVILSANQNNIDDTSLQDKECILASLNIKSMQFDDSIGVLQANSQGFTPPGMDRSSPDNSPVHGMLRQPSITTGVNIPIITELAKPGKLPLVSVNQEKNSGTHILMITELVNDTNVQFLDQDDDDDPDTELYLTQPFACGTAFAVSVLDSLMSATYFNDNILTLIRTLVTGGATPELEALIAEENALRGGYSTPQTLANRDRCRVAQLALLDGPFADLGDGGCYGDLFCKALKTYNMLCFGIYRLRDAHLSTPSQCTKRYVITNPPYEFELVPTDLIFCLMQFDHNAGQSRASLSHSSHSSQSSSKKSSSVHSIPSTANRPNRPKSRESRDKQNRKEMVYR
The test system of assay [4] is BK channels. The following applies: cited from earlier work.
For a further assay, the system named is Shaker channels. The following applies: ref Murrell-Lagnado and Aldrich, 1993b; cited from earlier work.
For assay [5], the system named is other K^+ channels and CNG channels. The following applies: most other K^+ channels; cited from earlier work.
Assay [6] deals with T2, wild-type BK channel (mslo) (Mus musculus, UniProt Q08460). Nature of the assay: State dependence of EBP block in High and Low Ca2+. It is filed as cell-based. The following applies: 3 μM EBP.
T2 sequence (Q08460 66-1209 limits assumed): as above
Assay [7] has as its target T2, wild-type BK channel (mslo). Nature of the assay: Deactivation. The assay is classed as cell-based.
For assay [8] the target is unchanged. In words: Competition between TBA and EBP on macroscopic BK currents. The assay is classed as cell-based.
Assay [9] deals with S6/2-KcsA BK channel construct (Mus musculus, UniProt Q08460, A378T/A381G/E386A/E389T/I387L/I388A/I391F/L377I/L390W/M379S/P385A/S382L/V384T/Y383V). The assay is classed as cell-based.
Sequence of S6/2-KcsA BK channel construct (Mus musculus, UniProt Q08460, A378T/A381G/E386A/E389T/I387L/I388A/I391F/L377I/L390W/M379S/P385A/S382L/V384T/Y383V) (Q08460 28-1196 isoform Q08460-2 with the stated changes): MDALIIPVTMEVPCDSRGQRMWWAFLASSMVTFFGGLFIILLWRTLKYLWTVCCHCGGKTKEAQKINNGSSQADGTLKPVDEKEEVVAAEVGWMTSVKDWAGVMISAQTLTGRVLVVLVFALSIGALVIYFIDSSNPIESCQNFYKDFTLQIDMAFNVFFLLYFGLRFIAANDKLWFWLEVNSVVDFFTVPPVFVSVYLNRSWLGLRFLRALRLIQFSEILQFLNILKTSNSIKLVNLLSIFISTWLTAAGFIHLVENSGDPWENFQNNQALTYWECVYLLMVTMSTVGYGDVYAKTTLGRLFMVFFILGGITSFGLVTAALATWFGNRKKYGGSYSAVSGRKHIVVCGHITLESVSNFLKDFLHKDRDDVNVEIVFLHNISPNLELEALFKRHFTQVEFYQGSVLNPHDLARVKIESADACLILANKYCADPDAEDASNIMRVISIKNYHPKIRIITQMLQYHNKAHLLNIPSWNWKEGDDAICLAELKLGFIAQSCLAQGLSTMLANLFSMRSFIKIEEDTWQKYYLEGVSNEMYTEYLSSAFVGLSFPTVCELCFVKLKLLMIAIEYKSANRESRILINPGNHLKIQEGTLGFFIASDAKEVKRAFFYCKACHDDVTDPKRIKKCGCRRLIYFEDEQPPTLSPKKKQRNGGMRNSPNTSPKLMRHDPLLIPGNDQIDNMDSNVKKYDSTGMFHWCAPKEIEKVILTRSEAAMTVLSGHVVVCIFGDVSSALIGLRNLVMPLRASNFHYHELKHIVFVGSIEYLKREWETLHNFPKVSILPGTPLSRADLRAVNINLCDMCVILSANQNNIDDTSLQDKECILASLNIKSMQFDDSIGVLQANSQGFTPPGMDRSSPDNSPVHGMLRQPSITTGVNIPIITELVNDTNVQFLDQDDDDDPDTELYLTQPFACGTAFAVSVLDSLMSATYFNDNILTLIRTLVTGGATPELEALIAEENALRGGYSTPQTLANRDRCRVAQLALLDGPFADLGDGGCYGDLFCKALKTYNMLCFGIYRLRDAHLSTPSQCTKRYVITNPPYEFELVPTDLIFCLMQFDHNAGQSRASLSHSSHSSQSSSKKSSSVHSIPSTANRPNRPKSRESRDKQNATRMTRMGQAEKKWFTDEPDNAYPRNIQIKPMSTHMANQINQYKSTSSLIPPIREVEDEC
In assay [10] the target is T1, E321N, E324N mutant BK channel. In words: Single channel recordings, E321N, E324N mutant. It is filed as cell-based.
For assay [11], the system named is S6/2-KcsA BK channel construct. The assay is classed as cell-based, mouse.
Assay [12] deals with BK channels. The following applies: internal; ref Li and Aldrich, 2004; cited from earlier work.
Assay [13] has as its target T2, wild-type BK channel (mslo). In words: Single channel recordings, wild-type BK channel. It is filed as cell-based. The following applies: n = 5.
[14] abbreviates: when roughly half of the channels are blocked.
Setting [15] is: EBP at around half block concentration, 120 mV.

T1 sequence (Q08460 66-1209 E386N/E389N limits assumed): as the sequence (Q08460 66-1209 limits assumed) above, with E321N, E324N counted along it

On to MAAVAGLYGLGEDRQHRKKQ [ShBP], for which the “block of Shaker compared with BK currents” value in assay [1] was “slower block and higher apparent affinity”. The “block of E321N, E324N currents by ShBP” value in [2] (100 μM ShBP, 120 mV (unpublished data), roughly estimated) is given as about 20%. Also, the “decrease in apparent affinity of ShBP by the double mutation” value in assay [2] (120 mV) is recorded as about 10 fold. For the same compound, in assay [3] (30 μM ShBP, macroscopic), the “time constant of block, τfast (double exponential fit)” value is listed as 2.0 ms and the “time constant of block, τslow (double exponential fit)” value is reported as 13.1 ms. In addition, the “block of wild-type BK currents by ShBP” value in assay [3] (100 μM ShBP, 120 mV) is listed as about 70%. For the same compound, in [3] (100 μM ShBP, macroscopic), the “time constant of block, τfast (double exponential fit)” value worked out at 0.7 ms and the “time constant of block, τslow (double exponential fit)” value is 5.2 ms. For the same compound, in assay [3] (native ShBP), the “type of block events in BK channels” value is “mainly short block events”. Moreover, the “character of block events” value in assay [3] (when about half of the currents are blocked, macroscopic) was “the majority of the block events are short lived”. In addition, in [3] (setting [14]), the “time constant of block, faster of two components” value was about 2 ms and the “time constant of block, slower of two components” value is on record as about 10 ms. Besides, the “lifetime of short block events, single BK channels” value with BK channels [4] (dominating, ref Foster et al., 1992, Toro et al., 1992, 1994) is recorded as “a few milliseconds”. Moreover, in the assay with BK channels [4] (rare, ref Foster et al., 1992, Toro et al., 1992, 1994), the “lifetime of long block events, single BK channels” value was “hundreds of milliseconds”. In the assay on BK channels [4] (ref Foster et al., 1992, Toro et al.), the “dissociation rate for the short block of BK channels” value is about 100 s⁻¹. The “dissociation rate, Shaker channels” value in the assay with Shaker channels was about 10 s⁻¹. Further, the “type of block events in other K+ channels” value in assay [5] was “only long block events”.
For the compound `CSCC[C@H](NC(C)=O)C(=O)N[C@@H](C)C(=O)N[C@@H](C)C(=O)N[C@H](C(=O)N[C@@H](C)C(=O)NCC(=O)N[C@@H](CC(C)C)C(=O)N[C@@H](Cc1ccc(O)cc1)C(=O)NCC(=O)N[C@@H](CC(C)C)C(=O)NCC(=O)N[C@@H](CCCCN)C(=O)N[C@@H](CCCCN)C(=O)N[C@@H](CCCNC(=N)N)C(=O)N[C@@H](CCC(N)=O)C(=O)N[C@@H](Cc1c[nH]cn1)C(=O)N[C@@H](CCCNC(=N)N)C(=O)N[C@@H](CCCCN)C(=O)N[C@@H](CCCCN)C(=O)N[C@@H](CCC(N)=O)C(N)=O)C(C)C` [EBP] (Ac-MAAVAGLYGLGKKRQHRKKQ-NH2), in [2] (100 μM EBP, 120 mV), the “block of E321N, E324N currents by EBP” value is recorded as under 60%. Further, the “decrease of apparent affinity of EBP block in double mutant vs wild type” value in [2] (120 mV, from fitted dose responses) was “more than two orders of magnitude”. The “Hill coefficient n (EBP)” value in assay [2] (E321N, E324N mutant, 120 mV, 11 patches) is listed as 0.72; in assay [3] (wild type, 120 mV, 500 ms pulses, 5 patches), 1.16. Besides, the “time constant of dominating component of block” value in assay [2] (setting [15]) is listed as “a few milliseconds”. Also, the “time constant of very small component of block” value in [2] (setting [15]) is reported as “hundreds of milliseconds”. Also, the “fraction of preblock, Po ∼0” value in [6] (High Ca^2+, lower end of range −80 to 80 mV) is on record as about 0. Also, the “relative amplitude of the test current, change with prepulse” value in [6] (Low Ca^2+, −80 to 80 mV, Po ∼0) is “doesn't change much”. Also, the “state dependence of block” value in assay [6] (High and Low Ca^2+ solutions) was “much more favored in an open configuration than a closed one; also recorded: peptide binding is much more favored in an opened BK channel”. Also, in [3] (1 μM EBP, 120 mV), the “rising phase of BK currents (activation) vs control” value was “largely unchanged compared with control”. The “time constant of block, τ (single exponential fit)” value in [3] (1 μM EBP, 120 mV, macroscopic) is given as 17.6 ms; in assay [3] (3 μM EBP, 120 mV, macroscopic), 4.5 ms; in [3] (10 μM EBP, 120 mV, macroscopic), 1.1 ms. In [3] (1 μM EBP, end of 60-ms pulses, n = 6), the “fraction of remaining current (I/Io), voltage dependence” value is recorded as “decreases with increased membrane potentials”. For the same compound, the “block of wild-type BK currents” value in assay [3] (3 μM EBP) is listed as “nearly complete block”. Further, the “single channel openings at steady-state block” value in assay [3] (3 μM EBP) is “single channel openings to the full current level are clearly evident”. For the same compound, the “1/τ of block, concentration dependence” value in assay [3] (1, 3 and 10 μM EBP, positive voltages (≥40 mV), n = 6) is on record as “linearly dependent on the concentration of EBP”. Further, in [3] (low concentration of EBP blocking roughly half of the channels (unpublished data)), the “time constant of the single exponential decay” value is about 100 ms. Further, the “association rate constant (Kon), voltage dependence” value in assay [3] (slope of 1/τ vs EBP concentration) is “larger depolarizations resulting in higher association rate constants”. Besides, in assay [7] (3 μM EBP, tail current compared with control), the “deactivation of BK channels” value was “slowed compared with the control trace; also recorded: Deactivation of BK channels is slowed by EBP”. Besides, in assay [7] (3 μM EBP, −160 mV after depolarization to 120 mV), the “normalized tail current time constant, τslow (double exponential fit)” value was 7.3 ms. The “normalized tail current time constant, τfast (double exponential fit)” value in assay [7] (3 μM EBP, −160 mV after depolarization to 120 mV (control τ = 0.25 ms)) amounted to 0.37 ms. Further, the “tail current time constant, slower component” value in assay [7] (EBP, negative potentials, relatively voltage insensitive) was about 10 ms. Also, the “tail current time constant, fast component” value in assay [7] (EBP, −60 mV) is reported as about 2 ms; in [7] (EBP, −160 mV), about 0.3 ms. Also, the “off rate at negative potentials” value in [7] (from modeling tail currents with a C↔O↔B model) is about 100 s⁻¹. In addition, the “type of block events, single BK channels” value with BK channels [4] (near 0 mV, ref Toro et al., 1994) is listed as “mostly short block events; also recorded: predominantly short block events”. Moreover, in the assay with BK channels [4] (single channel, ref Toro et al., 1994), the “affinity for BK channels” value was “higher affinity for BK channels than ShBP”. The “time constant of block, τ” value in assay [8] (3 μM EBP alone) came to 2.8 ms; in assay [8] (3 μM EBP plus 500 μM TBA), 5.6 ms. Also, the “competition of TBA and EBP binding” value in assay [8] (3 μM EBP, 500 μM TBA, positive potentials) is “mutually exclusive”. In assay [9] (100 μM EBP, 120 mV, mean ± SD, n = 5), the “block of S6/2-KcsA current by EBP” value is 23.0 ± 0.5% and ~20%. Besides, in assay [9] (120 mV), the “apparent affinity of EBP for S6/2-KcsA vs E321N, E324N double mutant” value is given as “about threefold lower”. For the same compound, the “apparent affinity of EBP for S6/2-KcsA vs wild-type BK” value in assay [9] (120 mV) was “more than three orders of magnitude lower”. Moreover, the “duration of block events, single E321N, E324N channel” value in assay [10] (100 μM EBP, 80 mV) was “mainly short block events lasting a few milliseconds”. In the assay on Shaker channels, the “affinity for Shaker channels vs native ShBP” value is “much higher affinity for Shaker channels”. Also, in the assay with Shaker channels, the “association rate for Shaker channels vs native ShBP” value is listed as “significantly higher association rate for Shaker channels than native ShBP”. Further, the “block events in single S6/2-KcsA channels” value in [11] (100 μM EBP, 120 mV) is on record as “fails to result in resolvable block events”. In addition, the “dissociation rate of EBP in S6/2-KcsA channels vs TBA” value in [11] (100 μM each) is “even faster than that of TBA”.
In the case of `CCCCCCCCCC[N+](CC)(CC)CC` [C10, Decyltriethylammonium], in the assay on BK channels [12], the “time dependence of block of BK currents” value was “without apparent time dependence”. The “Hill coefficient n (C10)” value turned out to be 1.01 in [2] (E321N, E324N mutant, 100 mV, eight patches); 0.97 in assay [3] (wild type, 100 mV, six patches); 0.95 in [9] (S6/2-KcsA, 100 mV, five patches). For the same compound, in assay [2] (macroscopic currents), the “decrease of apparent affinity of block in E321N, E324N mutant vs wild type” value was about 2.5 fold. The association rate stood at 9.0 ± 1.6 ms^−1 in assay [13] (15 μM C10, mean ± SD) and 12.5 ± 1.1 ms^−1 in assay [10] (E321N, E324N mutant, 40 μM C10, mean ± SD, n = 5). Further, the “dissociation rate of block (mean shut dwell time)” value in assay [13] (120 mV, mean ± SD) worked out at 6.4 ± 0.5 ms^−1; in assay [10] (E321N, E324N mutant, 120 mV, mean ± SD, n = 5) it was 7.8 ± 0.6 ms^−1. The “affinity of C10 relative to that of TBA” value in assay [3] (wild-type BK channels) is listed as about 30 times. In addition, the “affinity of C10 vs TBA, S6/2-KcsA” value in assay [9] is “lower affinity than TBA”. Besides, the “decrease of apparent affinity of C10 in S6/2-KcsA vs wild type” value in [9] is given as “almost two orders of magnitude”. Moreover, the “block of macroscopic S6/2-KcsA currents by C10” value in [9] (1 mM C10) was “about half the macroscopic currents”. The “block events in single S6/2-KcsA channels” value in assay [11] (1 mM C10) is “too fast to resolve”.
